{"source": "patent US20160303184A1", "about": "“VANCOMYCIN-SUGAR CONJUGATES AND USES THEREOF” (JAWAHARLAL NEHRU CENTRE FOR ADVANCED SCIENTIFIC RESEARCH …, priority 2013, published 2016)", "key": {"[1]": {"system": "Methicillin-sensitive S. aureus (MTCC 737)", "test": "MIC, micro-dilution broth, MSSA", "format": "cell-based", "details": "Staphylococcus aureus, read-out: MIC MSSA", "method": "(§1) All test compounds were assayed in a micro-dilution broth format. Stock solutions were made by serially diluting the compounds using autoclaved millipore water or broth media. The antibacterial activity of the compounds was determined against methicillin-sensitive S. aureus (MSSA), methicillin-resistant S. aureus (MRSA), vancomycin-intermediate-resistant S. aureus (VISA), vancomycin-sensitive E. faecium (VSE) and vancomycin-resistant E. faecium (VRE). Bacteria, to be tested, were grown for about 10 h in the suitable media, MSSA, MRSA and VISA were grown in yeast-dextrose broth (about 1 g of beef extract, about 2 g of yeast extract, about 5 g of peptone and about 5 g of NaCl in about 1000 mL of sterile distilled water (pH-7)). For solid media, about 5% agar was used along with above mentioned composition. VSE and VRE were cultured in brain heart infusion broth (Himedia). The bacterial samples were freeze dried and stored at −80° C. About 5 μL of these stocks were added to about 3 mL of the nutrient broth and the culture was grown for about 6 h at about 37° C. prior to the experiments. This 6 h grown culture gives about 10^9 cfu/mL and this was determined by spread plating method. The 6 h grown culture was diluted to give effective cell concentration of about 10^5 cfu/mL which was then used for determining MIC. Compounds were serially diluted, in sterile water (2 fold dilution is employed) in a way that the working concentration was about 10 μM for MSSA, MRSA, and VSE while for VRE and VISA it was about 100 μM. About 50 μL of these serial dilutions were added to the wells of 96 well plate followed by the addition of about 150 μL of bacterial solution. The plates were then incubated at about 37° C., 150 rpm in the incubator and O.D at 600 nm was recorded at an interval of about 10 h and 24 h using TECAN (Infinite series, M200 pro) Plate Reader. Each concentration had triplicate values and the whole experiment was done at least twice and the MIC value was determined by taking the average of triplicate. O. D. values for each concentration and plotting it against concentration. The data was then subjected to sigmoidal fitting. From the curve the MIC value was determined, as the point in the curve where the O. D. was similar to that of control having no bacteria."}, "[2]": {"system": "Vancomycin-sensitive E. faecium (ATCC 19634)", "test": "MIC, micro-dilution broth, VSE", "format": "cell-based", "details": "Enterococcus faecium, ATCC19634, read-out: MIC VSE", "method": "as §1"}, "[3]": {"system": "Vancomycin-resistant E. faecalis (VanA, ATCC 51575)", "test": "MIC, micro-dilution broth, VRE (VanB)", "format": "cell-based", "details": "Enterococcus faecalis, read-out: MIC VRE (VanB)"}, "VISA": {"system": "VISA", "test": "Ex-vivo whole blood assay", "format": "cell-based, S. aureus", "details": "3 h incubation in 90% human whole blood", "method": "Ex-vivo whole blood assay was performed to compare the abilities of these compounds to retain activity in complex media. To 30 μL of VISA in saline (0.9% NaCl; 10^6 CFU/mL) 10 μL of test compounds (vancomycin and compound 7) and 270 μL of fresh human whole blood were added and incubated, at 37° C. for about 3 h. After the incubation period, antibacterial activity was determined by finding the bacterial titer in the infected blood."}, "MR-VISA [4]": {"system": "MR-VISA", "test": "In-vivo antibacterial activity, neutropenic mouse thigh infection", "set-up": "species or system Staphylococcus aureus", "details": "12 mg/kg i.v., neutropenic mice, 24 h", "method": "About six-week-old, female CD-1 mice (weight, ˜19-24 g) were used for the experiments. The mice were rendered neutropenic (˜100 […]) by injecting two doses of cyclophosphamide intraperitoneally 4 days (150 mg/kg) and 1 day (100 mg/kg) before the infection experiment. 50 μl of ˜10^7 CFU/ml concentration of the bacterial inoculum (MR-VISA) was injected into the thigh. One hour after inoculation, animals were treated intravenously with saline, vancomycin, linezolid and compound 7 at 12 mg/kg and 24 mg/kg of body weight (24 h total dosage). At 24 h post first treatment, cohorts of animals were euthanized (using ether) and the thighs were collected aseptically. The thigh was weighed (0.7 g-0.9 g) and placed into 10 ml of sterile saline and homogenized. The dilutions of the homogenate were plated onto agar plates, which were incubated overnight at 37° C. The bacterial titer was expressed as log10 CFU/g of thigh weight."}, "MR-VISA [5]": {"system": "MR-VISA", "test": "Pharmacodynamics against MR-VISA thigh infection, single dose", "format": "in vivo, Staphylococcus aureus", "details": "single i.v. dose; for ED50: 50% maximal bacterial killing; for EDstasis: 24-h colony count similar to pretreatment count", "method": "Data are expressed as means±SD (error bars). A separate single-dose study of compound 7 was performed in neutropenic mice inoculated in the thigh with 50 μL of MR-VISA (10^7 CFU/ml). Infected animals were treated intravenously, at 1 h post infection, with 2 mg/kg, 4 mg/kg, 8 mg/kg and 12 mg/kg. At 24 h post inoculation mice were sacrificed and the thigh tissues were harvested for determination of bacterial titer as mentioned above."}, "[6]": {"test": "Acute toxicity (blood biochemistry, liver and kidney histology)", "format": "in vivo, mice", "details": "12 mg/kg i.v.", "method": "For the evaluation of the acute toxicity, two groups of 10 mice each received intravenous injection of compound 7 at 12 mg/kg in 0.2 ml of sterilized saline. 10 mice were sacrificed at 48 h and the rest mice at 14 days to collect blood samples for analysis of biochemical parameters such as alanine transaminase (ALT), alkaline phosphatase (ALP), urea nitrogen, creatinine, sodium ion, potassium ion and chloride ion levels. Blood samples were analyzed at Gokula Metropolis clinical laboratory, Bengaluru, India. And also to examine the adverse effects of compound 7 in tissue level, we have isolated liver and kidney organs in 10% neutral formalin. Tissues were processed by dehydration in ascending grades of ethyl alcohol, clearing in xylol, embedding in paraffin wax and prepared sections of 5 μm thickness. Then paraffin sections were stained using haematoxylin and eosin, and observed under light microscope for histological changes."}}, "note": "“Also recorded” adds a separate entry of the source. Like-named read-outs stand apart in the source and are kept apart here."}
{"smiles": "CCCCCCCCCCN[C@]1(C)C[C@H](OC2C(O)[C@@H](O)C(CO)O[C@@H]2Oc2c3cc4cc2Oc2ccc(cc2Cl)[C@@H](O)[C@@H](NC(=O)[C@@H](CC(C)C)NC)C(=O)N[C@@H](CC(N)=O)C(=O)N[C@H]4C(=O)N[C@H]2C(=O)N[C@H](C(=O)N[C@H](C(=O)NCCCNC(=O)[C@H](O)[C@@H](O)[C@H](OC4OC(CO)C(O)C(O)[C@H]4O)[C@H](O)CO)c4cc(O)cc(O)c4-c4cc2ccc4O)[C@H](O)c2ccc(c(Cl)c2)O3)OC(C)[C@@H]1O", "note": "(some centres unmarked) [Compound 7]", "values": [{"measurement": "MIC", "setting": "[1]", "value": 0.2, "unit": "µM"}, {"measurement": "MIC", "setting": "[2]", "value": 0.15, "unit": "µM"}, {"measurement": "MIC", "setting": "[3]", "value": 1, "unit": "µM"}, {"measurement": "bactericidal activity in whole blood", "setting": "VISA", "value": "rapid bactericidal activity"}, {"measurement": "reduction in bacterial count from the initial titer", "setting": "MR-VISA [4]", "value": "~3.0", "unit": "log10 CFU/g"}, {"measurement": "ED50", "setting": "MR-VISA [5]; Staphylococcus aureus, VISA, in Mus musculus, iv, 24 h, neutropenic mice thigh, 24 h, read-out: ED50", "value": 1.05, "unit": "mg/kg"}, {"measurement": "ED1-log kill", "setting": "MR-VISA [5]; neutropenic mice thigh, 24 h", "value": 3.7, "unit": "mg/kg"}, {"measurement": "ED2-log kill", "setting": "MR-VISA [5]; neutropenic mice thigh, 24 h", "value": 8.8, "unit": "mg/kg"}, {"measurement": "ED2.6-log kill", "setting": "MR-VISA [5]; neutropenic mice thigh, 24 h", "value": 12, "unit": "mg/kg"}, {"measurement": "ED50", "setting": "MR-VISA [5]; neutropenic mice thigh, 24 h", "value": 1.0, "unit": "mg/kg"}, {"measurement": "EDstasis", "setting": "MR-VISA [5]", "value": 2.2, "unit": "mg/kg"}, {"measurement": "EDstasis", "setting": "MR-VISA [5]; listed as compound 7", "value": 2.22, "unit": "mg/kg"}, {"measurement": "acute damage to liver and kidney functions", "setting": "[6]; 48 h and 14 days", "value": "did not cause any significant acute damage; also recorded: no significant acute damage"}, {"measurement": "Chloride ion", "setting": "[6]; 48 h post-treatment", "value": "112.9 ± 1.52", "unit": "mmol/L"}, {"measurement": "Kidney Creatinine", "setting": "[6]; 48 h post-treatment", "value": "0.2 ± 0.133", "unit": "mg/dL"}, {"measurement": "Liver ALT", "setting": "[6]; 48 h post-treatment", "value": "55.23 ± 5.24", "unit": "U L^−1"}, {"measurement": "Potassium ion", "setting": "[6]; 48 h post-treatment", "value": "6.86 ± 0.81", "unit": "mmol/L"}, {"measurement": "Sodium ion", "setting": "[6]; 48 h post-treatment", "value": "143.63 ± 1.65", "unit": "mmol/L"}, {"measurement": "Urea Nitrogen", "setting": "[6]; 48 h post-treatment", "value": "19.52 ± 3.25", "unit": "mg/dL"}, {"measurement": "Chloride ion", "setting": "[6]; 14 days post treatment", "value": "110.85 ± 2.16", "unit": "mmol/L"}, {"measurement": "Kidney Creatinine", "setting": "[6]; 14 days post treatment", "value": "0.22 ± 0.1", "unit": "mg/dL"}, {"measurement": "Liver ALT", "setting": "[6]; 14 days post treatment", "value": "53.28 ± 3.78", "unit": "U L^−1"}, {"measurement": "Potassium ion", "setting": "[6]; 14 days post treatment", "value": "6.75 ± 0.833", "unit": "mmol/L"}, {"measurement": "Sodium ion", "setting": "[6]; 14 days post treatment", "value": "143.04 ± 0.71", "unit": "mmol/L"}, {"measurement": "Urea Nitrogen", "setting": "[6]; 14 days post treatment", "value": "24.46 ± 4.93", "unit": "mg/dL"}, {"measurement": "gross anatomical and histopathological examination of liver and kidney sections", "setting": "[6]; compared to control", "value": "no significant changes"}]}
